# From US8497245B2, “Trypsin-like serine protease inhibitors, their preparation and use as selective inhibitors of the clotting factors IIa and Xa” (The Medicines Company (Leipzig) GmbH, priority 2010, dated 2013)
# Counter-ions that a name gives are not always drawn.
# Target: T1, Subcomponent "s" of Human Complement Component 1 (h C1s) (Homo sapiens, UniProt P09871)
# T1 construct: purchased Calbiochem
# T1 sequence (P09871 438-688 limits assumed): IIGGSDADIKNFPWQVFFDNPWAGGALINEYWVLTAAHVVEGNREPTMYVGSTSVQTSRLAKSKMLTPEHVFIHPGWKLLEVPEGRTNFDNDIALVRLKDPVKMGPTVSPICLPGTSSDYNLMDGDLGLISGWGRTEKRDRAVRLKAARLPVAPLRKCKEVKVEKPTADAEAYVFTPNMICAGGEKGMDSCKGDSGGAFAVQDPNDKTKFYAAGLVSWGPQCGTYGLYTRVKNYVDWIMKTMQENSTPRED
# T1 sequence (P09871 16-437 partner limits assumed): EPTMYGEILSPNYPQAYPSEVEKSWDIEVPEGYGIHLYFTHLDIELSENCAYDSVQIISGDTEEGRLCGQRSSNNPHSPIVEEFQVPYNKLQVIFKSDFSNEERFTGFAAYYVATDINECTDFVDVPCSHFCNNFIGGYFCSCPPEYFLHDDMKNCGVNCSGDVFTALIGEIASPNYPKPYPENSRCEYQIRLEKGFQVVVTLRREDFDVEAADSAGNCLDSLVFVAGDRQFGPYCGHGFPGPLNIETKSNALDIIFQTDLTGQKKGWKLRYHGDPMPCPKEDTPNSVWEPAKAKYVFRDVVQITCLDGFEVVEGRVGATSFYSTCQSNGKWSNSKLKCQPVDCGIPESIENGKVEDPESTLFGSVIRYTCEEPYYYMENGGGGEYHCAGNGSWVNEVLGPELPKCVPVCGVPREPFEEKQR
# Experiment: Inhibition of human C1s (reference enzyme)
# Type: biochemical
# Conditions: S-2314 substrate; read-out: Ki h Cls
# Description: (§1) The inhibitory effect against the individual purified enzymes was determined in analogy to a previously disclosed method (Stürzebecher et al., J. Med. Chem., 40, 3091-3099 (1997)).
# (§2) The release of p-nitroaniline (p-NA, the chromogenic product of the proteolytic activity), was determined by change in absorbance at 405 nm. The equilibrium rates were used to calculate the inhibitor/enzyme dissociation constant (Ki values) by parameter fitting in accordance with the rate equation for competitive inhibition using GraFit (version 4 from Erithacus). The results are reported as Ki values (nanomolar) in table 7 and are the average of at least three determinations.
# (§3) Dissociation constants were calculated as described herein.
row,Ki,SMILES
1,> 100 µM,"NCc1ccc(Cl)cc1CNC(=O)[C@@H]1CCCN1C(=O)[C@H](N)CCC(=O)N1CCOCC1 [Compound 2.49, H-D-Glu(morpholino)-L-Pro-Amb(2-AMe-5-Cl)×2 TFA]"
2,> 100 µM,NCc1ccc(Cl)cc1CNC(=O)[C@@H]1CCN1C(=O)[C@@H](CC(=O)N1CCCCC1)NS(=O)(=O)Cc1ccccc1 [Compound 2.45]
3,> 20 µM,NCc1ccc(Cl)cc1CNC(=O)[C@@H]1C[C@H](N)CN1C(=O)[C@@H](CC(=O)N1CCCCC1)NS(=O)(=O)Cc1ccccc1 [Compound 2.6]

# Target: T2, Human plasmin (h plasmin) (Homo sapiens, UniProt P00747)
# T2 construct: purchased Calbiochem
# T2 sequence (P00747 581-810 limits assumed): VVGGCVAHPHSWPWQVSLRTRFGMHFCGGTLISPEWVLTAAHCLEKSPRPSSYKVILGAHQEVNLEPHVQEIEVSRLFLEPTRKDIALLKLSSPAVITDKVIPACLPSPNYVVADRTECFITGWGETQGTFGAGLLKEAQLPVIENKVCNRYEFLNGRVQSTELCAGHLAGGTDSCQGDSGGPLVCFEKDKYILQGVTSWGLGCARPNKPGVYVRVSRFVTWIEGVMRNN
# T2 sequence (P00747 97-580 partner limits assumed): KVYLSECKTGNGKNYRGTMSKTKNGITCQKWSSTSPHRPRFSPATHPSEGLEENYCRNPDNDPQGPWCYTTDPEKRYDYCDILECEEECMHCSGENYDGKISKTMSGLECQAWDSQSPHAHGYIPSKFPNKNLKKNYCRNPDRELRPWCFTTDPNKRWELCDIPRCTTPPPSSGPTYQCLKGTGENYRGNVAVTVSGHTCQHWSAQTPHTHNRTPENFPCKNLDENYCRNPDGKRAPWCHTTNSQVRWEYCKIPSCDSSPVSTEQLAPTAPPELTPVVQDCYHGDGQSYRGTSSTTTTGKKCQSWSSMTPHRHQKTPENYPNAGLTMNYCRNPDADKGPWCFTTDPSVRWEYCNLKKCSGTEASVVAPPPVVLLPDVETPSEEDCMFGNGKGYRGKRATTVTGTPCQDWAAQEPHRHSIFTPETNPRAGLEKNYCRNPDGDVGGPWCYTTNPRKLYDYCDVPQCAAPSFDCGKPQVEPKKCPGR
# Experiment: Inhibition of human plasmin (reference enzyme)
# Type: biochemical
# Conditions: Chromozym PL substrate
# Description: as §1, §2, §3
row,Ki,SMILES
1,> 100 µM,"NCc1ccc(Cl)cc1CNC(=O)[C@@H]1CCCN1C(=O)[C@H](N)CCC(=O)N1CCOCC1 [Compound 2.49, H-D-Glu(morpholino)-L-Pro-Amb(2-AMe-5-Cl)×2 TFA]"
2,> 20 µM,NCc1ccc(Cl)cc1CNC(=O)[C@@H]1CCN1C(=O)[C@@H](CC(=O)N1CCCCC1)NS(=O)(=O)Cc1ccccc1 [Compound 2.45]
3,8.75 µM,NCc1ccc(Cl)cc1CNC(=O)[C@@H]1C[C@H](N)CN1C(=O)[C@@H](CC(=O)N1CCCCC1)NS(=O)(=O)Cc1ccccc1 [Compound 2.6]

# Target: T3, Human urokinase type plasminogen activator (h u-PA) (Homo sapiens, UniProt P00749)
# T3 construct: purchased MEDAC GmbH Urokinase HS medac
# Experiment: Inhibition of human urokinase type plasminogen activator (reference enzyme)
# Type: biochemical
# Conditions: H-Glu-Gly-Arg-pNA substrate
# Description: as §1, §2, §3
row,Ki,SMILES
1,> 100 µM,"NCc1ccc(Cl)cc1CNC(=O)[C@@H]1CCCN1C(=O)[C@H](N)CCC(=O)N1CCOCC1 [Compound 2.49, H-D-Glu(morpholino)-L-Pro-Amb(2-AMe-5-Cl)×2 TFA]"
2,> 20 µM,NCc1ccc(Cl)cc1CNC(=O)[C@@H]1CCN1C(=O)[C@@H](CC(=O)N1CCCCC1)NS(=O)(=O)Cc1ccccc1 [Compound 2.45]
3,> 30 µM,NCc1ccc(Cl)cc1CNC(=O)[C@@H]1C[C@H](N)CN1C(=O)[C@@H](CC(=O)N1CCCCC1)NS(=O)(=O)Cc1ccccc1 [Compound 2.6]

# Target: T4, Human tissue-type plasminogen activator (h t-PA) (Homo sapiens, UniProt P00750)
# T4 construct: purchased Boehringer Ingelheim Actilyse
# T4 sequence (P00750 36-562): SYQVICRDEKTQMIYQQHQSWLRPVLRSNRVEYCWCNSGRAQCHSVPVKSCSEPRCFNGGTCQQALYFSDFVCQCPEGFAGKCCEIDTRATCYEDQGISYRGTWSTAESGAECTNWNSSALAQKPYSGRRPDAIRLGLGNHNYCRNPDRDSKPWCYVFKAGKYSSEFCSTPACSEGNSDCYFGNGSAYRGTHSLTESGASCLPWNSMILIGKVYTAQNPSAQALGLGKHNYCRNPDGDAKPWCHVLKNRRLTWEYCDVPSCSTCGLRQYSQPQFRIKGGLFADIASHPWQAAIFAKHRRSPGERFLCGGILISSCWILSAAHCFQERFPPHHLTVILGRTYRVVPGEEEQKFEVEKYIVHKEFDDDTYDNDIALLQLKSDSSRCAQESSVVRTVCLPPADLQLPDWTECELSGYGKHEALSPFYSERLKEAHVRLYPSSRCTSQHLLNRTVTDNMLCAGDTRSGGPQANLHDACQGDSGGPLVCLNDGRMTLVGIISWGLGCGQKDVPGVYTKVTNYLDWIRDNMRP
# Experiment: Inhibition of human tissue-type plasminogen activator (reference enzyme)
# Type: biochemical
# Conditions: Pefachrome tPA substrate; read-out: Ki h t-PA
# Description: The equilibrium rates were used to calculate the inhibitor/enzyme dissociation constant (Ki values) by parameter fitting in accordance with the rate equation for competitive inhibition using GraFit (version 4 from Erithacus).
# as §3
row,Ki,SMILES
1,> 100 µM,"NCc1ccc(Cl)cc1CNC(=O)[C@@H]1CCCN1C(=O)[C@H](N)CCC(=O)N1CCOCC1 [Compound 2.49, H-D-Glu(morpholino)-L-Pro-Amb(2-AMe-5-Cl)×2 TFA]"
2,> 20 µM,NCc1ccc(Cl)cc1CNC(=O)[C@@H]1CCN1C(=O)[C@@H](CC(=O)N1CCCCC1)NS(=O)(=O)Cc1ccccc1 [Compound 2.45]
3,5.05 µM,NCc1ccc(Cl)cc1CNC(=O)[C@@H]1C[C@H](N)CN1C(=O)[C@@H](CC(=O)N1CCCCC1)NS(=O)(=O)Cc1ccccc1 [Compound 2.6]

# Target: T5, Subcomponent "r" of Human Complement Component 1 (h C1r) (Homo sapiens, UniProt P00736)
# T5 construct: purchased Calbiochem
# T5 sequence (P00736 464-705 limits assumed): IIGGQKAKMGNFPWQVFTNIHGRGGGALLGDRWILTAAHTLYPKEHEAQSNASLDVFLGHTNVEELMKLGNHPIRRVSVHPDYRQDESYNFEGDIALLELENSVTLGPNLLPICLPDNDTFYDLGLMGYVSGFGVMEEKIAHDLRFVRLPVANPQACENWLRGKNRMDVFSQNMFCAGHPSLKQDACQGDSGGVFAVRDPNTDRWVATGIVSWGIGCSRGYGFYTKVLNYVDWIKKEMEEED
# T5 sequence (P00736 18-463 partner limits assumed): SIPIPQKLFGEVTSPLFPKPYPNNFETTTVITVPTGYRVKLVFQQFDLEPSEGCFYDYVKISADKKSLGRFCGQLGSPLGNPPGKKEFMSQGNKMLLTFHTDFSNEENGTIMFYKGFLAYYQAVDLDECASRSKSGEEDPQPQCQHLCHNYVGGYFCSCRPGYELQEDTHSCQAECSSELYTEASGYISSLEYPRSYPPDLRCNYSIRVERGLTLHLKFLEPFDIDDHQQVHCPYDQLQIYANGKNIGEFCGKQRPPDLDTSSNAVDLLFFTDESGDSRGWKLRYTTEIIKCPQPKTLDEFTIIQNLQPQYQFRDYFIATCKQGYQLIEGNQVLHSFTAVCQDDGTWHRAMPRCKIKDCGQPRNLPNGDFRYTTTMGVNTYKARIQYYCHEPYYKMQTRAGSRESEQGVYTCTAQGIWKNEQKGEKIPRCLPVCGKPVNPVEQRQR
# Experiment: Inhibition of human C1r (reference enzyme)
# Type: biochemical
# Conditions: S-2314 substrate; read-out: Ki h Clr
# Description: as §1, §2, §3
row,Ki,SMILES
1,> 10 µM,"NCc1ccc(Cl)cc1CNC(=O)[C@@H]1CCCN1C(=O)[C@H](N)CCC(=O)N1CCOCC1 [Compound 2.49, H-D-Glu(morpholino)-L-Pro-Amb(2-AMe-5-Cl)×2 TFA]"
2,> 30 µM,NCc1ccc(Cl)cc1CNC(=O)[C@@H]1CCN1C(=O)[C@@H](CC(=O)N1CCCCC1)NS(=O)(=O)Cc1ccccc1 [Compound 2.45]
3,> 20 µM,NCc1ccc(Cl)cc1CNC(=O)[C@@H]1C[C@H](N)CN1C(=O)[C@@H](CC(=O)N1CCCCC1)NS(=O)(=O)Cc1ccccc1 [Compound 2.6]

# Target: T6, human factor IIa (human alpha-thrombin) (Homo sapiens, UniProt P00734)
# T6 construct: human alpha-thrombin from Enzyme Research Laboratories; purchased Enzyme Research Laboratories
# Experiment: Inhibition constants for human factor IIa, chromogenic substrate assay
# Type: biochemical
# Conditions: 25° C., Pefachrome tPA substrate, average of at least three determinations; read-out: Ki h FIIa
# Description: as §1
# (§4) 200 μL of TBS (0.05 M trishydroxymethylaminomethane; 0.154 M NaCl, 2% ethanol, pH 8.0)
# as §2
row,Ki,SMILES
1,0.008 µM,"NCc1ccc(Cl)cc1CNC(=O)[C@@H]1CCCN1C(=O)[C@H](N)CCC(=O)N1CCOCC1 [Compound 2.49, H-D-Glu(morpholino)-L-Pro-Amb(2-AMe-5-Cl)×2 TFA]"
2,0.00072 µM,NCc1ccc(Cl)cc1CNC(=O)[C@@H]1CCN1C(=O)[C@@H](CC(=O)N1CCCCC1)NS(=O)(=O)Cc1ccccc1 [Compound 2.45]
3,0.00018 µM,NCc1ccc(Cl)cc1CNC(=O)[C@@H]1C[C@H](N)CN1C(=O)[C@@H](CC(=O)N1CCCCC1)NS(=O)(=O)Cc1ccccc1 [Compound 2.6]

# Target: T7, Human Activated Protein C (h aPC) (Homo sapiens, UniProt P04070)
# T7 construct: purchased Enzyme Research Laboratories
# T7 sequence (P04070 212-450 limits assumed): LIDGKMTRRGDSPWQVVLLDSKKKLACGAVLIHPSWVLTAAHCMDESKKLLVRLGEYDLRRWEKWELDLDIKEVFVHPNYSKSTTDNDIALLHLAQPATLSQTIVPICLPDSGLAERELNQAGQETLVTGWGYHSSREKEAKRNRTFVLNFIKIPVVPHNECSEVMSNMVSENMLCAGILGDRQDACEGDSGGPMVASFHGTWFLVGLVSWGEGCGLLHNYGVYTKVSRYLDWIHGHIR
# T7 sequence (P04070 43-197 partner limits assumed): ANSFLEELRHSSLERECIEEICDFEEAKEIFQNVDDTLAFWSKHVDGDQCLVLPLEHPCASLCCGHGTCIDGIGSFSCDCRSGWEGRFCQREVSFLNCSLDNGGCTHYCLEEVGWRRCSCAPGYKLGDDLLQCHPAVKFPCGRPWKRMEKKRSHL
# Experiment: Inhibition of human activated protein C (reference enzyme)
# Type: biochemical
# Conditions: Pefachrome PCa substrate
# Description: as §1, §2, §3
row,Ki,SMILES
1,> 10 µM,"NCc1ccc(Cl)cc1CNC(=O)[C@@H]1CCCN1C(=O)[C@H](N)CCC(=O)N1CCOCC1 [Compound 2.49, H-D-Glu(morpholino)-L-Pro-Amb(2-AMe-5-Cl)×2 TFA]"
2,> 100 µM,NCc1ccc(Cl)cc1CNC(=O)[C@@H]1CCN1C(=O)[C@@H](CC(=O)N1CCCCC1)NS(=O)(=O)Cc1ccccc1 [Compound 2.45]
3,> 100 µM,NCc1ccc(Cl)cc1CNC(=O)[C@@H]1C[C@H](N)CN1C(=O)[C@@H](CC(=O)N1CCCCC1)NS(=O)(=O)Cc1ccccc1 [Compound 2.6]

# Target: T8, Human plasma kallikrein (h PK) (Homo sapiens, UniProt P03952)
# T8 construct: purchased Enzyme Research Laboratories
# T8 sequence (P03952 391-638 limits assumed): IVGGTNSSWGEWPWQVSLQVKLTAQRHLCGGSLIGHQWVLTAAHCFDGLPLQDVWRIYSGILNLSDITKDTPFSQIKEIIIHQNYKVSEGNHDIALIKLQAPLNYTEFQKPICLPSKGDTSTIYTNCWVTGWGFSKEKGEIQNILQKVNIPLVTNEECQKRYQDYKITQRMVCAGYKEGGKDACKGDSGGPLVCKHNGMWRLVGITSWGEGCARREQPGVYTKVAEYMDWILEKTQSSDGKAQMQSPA
# T8 sequence (P03952 20-390 partner limits assumed): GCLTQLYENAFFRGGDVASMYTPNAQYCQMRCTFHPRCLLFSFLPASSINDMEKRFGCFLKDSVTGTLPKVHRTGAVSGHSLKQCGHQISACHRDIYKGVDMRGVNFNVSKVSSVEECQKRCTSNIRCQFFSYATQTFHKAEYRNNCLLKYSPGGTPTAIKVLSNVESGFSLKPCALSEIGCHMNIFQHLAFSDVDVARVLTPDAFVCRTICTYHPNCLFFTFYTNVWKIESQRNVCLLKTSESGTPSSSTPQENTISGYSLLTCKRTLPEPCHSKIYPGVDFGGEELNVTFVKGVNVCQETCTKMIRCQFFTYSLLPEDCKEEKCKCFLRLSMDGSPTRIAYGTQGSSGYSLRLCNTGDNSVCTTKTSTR
# Experiment: Inhibition of human plasma kallikrein (reference enzyme)
# Type: biochemical
# Conditions: S2302 substrate
# Description: as §1, §2, §3
row,Ki,SMILES
1,> 10 µM,"NCc1ccc(Cl)cc1CNC(=O)[C@@H]1CCCN1C(=O)[C@H](N)CCC(=O)N1CCOCC1 [Compound 2.49, H-D-Glu(morpholino)-L-Pro-Amb(2-AMe-5-Cl)×2 TFA]"
2,1.86 µM,NCc1ccc(Cl)cc1CNC(=O)[C@@H]1CCN1C(=O)[C@@H](CC(=O)N1CCCCC1)NS(=O)(=O)Cc1ccccc1 [Compound 2.45]
3,0.335 µM,NCc1ccc(Cl)cc1CNC(=O)[C@@H]1C[C@H](N)CN1C(=O)[C@@H](CC(=O)N1CCCCC1)NS(=O)(=O)Cc1ccccc1 [Compound 2.6]

# Target: T9, Human urinary kallikrein (h uKK) (Homo sapiens, UniProt P06870)
# T9 construct: purchased Lee Biosolutions
# T9 sequence (P06870 25-262): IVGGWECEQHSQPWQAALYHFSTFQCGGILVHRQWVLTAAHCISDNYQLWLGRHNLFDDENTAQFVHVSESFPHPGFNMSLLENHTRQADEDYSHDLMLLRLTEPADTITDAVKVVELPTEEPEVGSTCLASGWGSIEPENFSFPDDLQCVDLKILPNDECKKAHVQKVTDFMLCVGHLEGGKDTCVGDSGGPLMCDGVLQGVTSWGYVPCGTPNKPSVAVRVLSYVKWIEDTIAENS
# Experiment: Inhibition of human urinary kallikrein (reference enzyme)
# Type: biochemical
# Conditions: S-2266 substrate
# Description: as §1, §2, §3
row,Ki,SMILES
1,> 100 µM,"NCc1ccc(Cl)cc1CNC(=O)[C@@H]1CCCN1C(=O)[C@H](N)CCC(=O)N1CCOCC1 [Compound 2.49, H-D-Glu(morpholino)-L-Pro-Amb(2-AMe-5-Cl)×2 TFA]"
2,> 10 µM,NCc1ccc(Cl)cc1CNC(=O)[C@@H]1CCN1C(=O)[C@@H](CC(=O)N1CCCCC1)NS(=O)(=O)Cc1ccccc1 [Compound 2.45]
3,> 50 µM,NCc1ccc(Cl)cc1CNC(=O)[C@@H]1C[C@H](N)CN1C(=O)[C@@H](CC(=O)N1CCCCC1)NS(=O)(=O)Cc1ccccc1 [Compound 2.6]

# Target: T10, human Factor Xa (Homo sapiens, UniProt P00742)
# T10 construct: human Factor Xa from Enzyme Research Laboratories; purchased Enzyme Research Laboratories
# T10 sequence (P00742 235-488 limits assumed): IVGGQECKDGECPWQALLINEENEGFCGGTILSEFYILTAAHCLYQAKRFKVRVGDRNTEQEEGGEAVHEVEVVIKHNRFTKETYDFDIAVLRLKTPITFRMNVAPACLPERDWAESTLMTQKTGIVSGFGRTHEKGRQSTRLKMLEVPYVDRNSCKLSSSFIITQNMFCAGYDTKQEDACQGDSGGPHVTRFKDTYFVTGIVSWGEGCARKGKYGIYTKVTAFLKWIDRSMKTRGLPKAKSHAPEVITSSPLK
# T10 sequence (P00742 41-179 partner limits assumed): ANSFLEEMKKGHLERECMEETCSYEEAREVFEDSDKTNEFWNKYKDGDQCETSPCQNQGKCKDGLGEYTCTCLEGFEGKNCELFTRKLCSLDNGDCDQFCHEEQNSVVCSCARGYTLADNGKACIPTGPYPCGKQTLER
# Experiment: Inhibition constants for human factor Xa, chromogenic substrate assay
# Type: biochemical
# Conditions: 25° C., Pefachrome FXa substrate, average of at least three determinations; read-out: Ki h FXa
# Description: as §1, §4, §2
row,Ki,SMILES
1,134 nM,"NCc1ccc(Cl)cc1CNC(=O)[C@@H]1CCCN1C(=O)[C@H](N)CCC(=O)N1CCOCC1 [Compound 2.49, H-D-Glu(morpholino)-L-Pro-Amb(2-AMe-5-Cl)×2 TFA]"
2,0.22 nM,NCc1ccc(Cl)cc1CNC(=O)[C@@H]1CCN1C(=O)[C@@H](CC(=O)N1CCCCC1)NS(=O)(=O)Cc1ccccc1 [Compound 2.45]
3,0.049 nM,NCc1ccc(Cl)cc1CNC(=O)[C@@H]1C[C@H](N)CN1C(=O)[C@@H](CC(=O)N1CCCCC1)NS(=O)(=O)Cc1ccccc1 [Compound 2.6]
